Test results taken from PMC2797259 (The Journal of Biological Chemistry, 2009).

Target: T1, BacA (Bacillus subtilis, UniProt P39638)
T1 sequence (P39638 1-204): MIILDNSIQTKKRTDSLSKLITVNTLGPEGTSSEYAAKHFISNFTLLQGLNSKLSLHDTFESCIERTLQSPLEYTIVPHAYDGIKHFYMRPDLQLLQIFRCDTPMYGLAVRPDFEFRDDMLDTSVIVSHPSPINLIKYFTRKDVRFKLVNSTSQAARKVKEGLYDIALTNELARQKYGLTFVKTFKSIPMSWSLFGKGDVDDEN
Assay: HPLC, UV, 1H NMR and ESI-MS of products
Format: biochemical
Details: decarboxylation; Tris-HCl pH 8.1

O=C(O)C(=O)CC1(C(=O)O)C=CC(O)C=C1 (stereo not shown) [prephenate]
HPLC, UV, 1H NMR and ESI-MS of products: prephenate is a substrate for BacA and not for BacB
